Results: ChEMBL document CHEMBL1139073, “Inhibition of Src kinase activity by 7-ethynyl-4-phenylamino-3-quinolinecarbonitriles: identification of SKS-927” (Bioorg Med Chem Lett, 2007)
In brackets after ≈: the same amount, converted by molar mass.

Legend:
[1] = molecular target: Proto-oncogene tyrosine-protein kinase Src (Homo sapiens, UniProt P12931); assay: Inhibition of Src activity; type: functional
[2] = molecular target: Proto-oncogene tyrosine-protein kinase Src (Rattus norvegicus, UniProt Q9WUD9); assay: Inhibition of Src in rat fibroblasts
Chain of Proto-oncogene tyrosine-protein kinase Src (Rattus norvegicus, UniProt Q9WUD9) (Q9WUD9 2-536 limits assumed): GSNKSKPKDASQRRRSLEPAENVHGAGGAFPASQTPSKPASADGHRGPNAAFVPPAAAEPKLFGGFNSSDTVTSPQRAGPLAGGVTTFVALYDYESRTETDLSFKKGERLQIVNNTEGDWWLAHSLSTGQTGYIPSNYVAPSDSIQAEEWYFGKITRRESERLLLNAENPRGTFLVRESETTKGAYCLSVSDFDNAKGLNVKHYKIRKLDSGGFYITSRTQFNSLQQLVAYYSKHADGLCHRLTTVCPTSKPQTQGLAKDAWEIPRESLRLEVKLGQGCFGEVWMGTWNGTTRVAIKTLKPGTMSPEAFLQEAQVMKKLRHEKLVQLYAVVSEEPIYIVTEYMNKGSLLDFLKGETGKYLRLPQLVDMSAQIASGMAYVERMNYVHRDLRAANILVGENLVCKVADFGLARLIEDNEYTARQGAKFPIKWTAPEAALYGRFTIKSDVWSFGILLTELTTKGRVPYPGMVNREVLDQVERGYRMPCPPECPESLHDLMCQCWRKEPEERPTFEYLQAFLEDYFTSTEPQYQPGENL

[3] = molecular target: RAC-alpha serine/threonine-protein kinase (Homo sapiens, UniProt P31749); assay: Inhibition of AKT
Chain of RAC-alpha serine/threonine-protein kinase (P31749 whole entry): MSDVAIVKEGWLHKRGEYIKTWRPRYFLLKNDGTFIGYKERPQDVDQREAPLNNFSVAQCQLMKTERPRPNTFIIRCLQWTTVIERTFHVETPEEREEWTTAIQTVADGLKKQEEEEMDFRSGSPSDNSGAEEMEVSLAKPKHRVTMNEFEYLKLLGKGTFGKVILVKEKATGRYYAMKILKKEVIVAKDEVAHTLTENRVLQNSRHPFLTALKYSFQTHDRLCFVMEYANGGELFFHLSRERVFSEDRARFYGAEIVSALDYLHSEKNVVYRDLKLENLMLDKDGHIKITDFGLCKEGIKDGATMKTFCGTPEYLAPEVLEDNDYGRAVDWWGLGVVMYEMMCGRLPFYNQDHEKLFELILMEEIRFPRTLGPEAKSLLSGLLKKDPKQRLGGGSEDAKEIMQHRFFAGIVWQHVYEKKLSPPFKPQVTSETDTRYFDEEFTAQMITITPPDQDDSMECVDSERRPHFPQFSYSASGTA

[4] = molecular target: Cyclin-dependent kinase 4 (Homo sapiens, UniProt P11802); assay: Inhibition of CDK4
Chain of Cyclin-dependent kinase 4 (P11802 whole entry): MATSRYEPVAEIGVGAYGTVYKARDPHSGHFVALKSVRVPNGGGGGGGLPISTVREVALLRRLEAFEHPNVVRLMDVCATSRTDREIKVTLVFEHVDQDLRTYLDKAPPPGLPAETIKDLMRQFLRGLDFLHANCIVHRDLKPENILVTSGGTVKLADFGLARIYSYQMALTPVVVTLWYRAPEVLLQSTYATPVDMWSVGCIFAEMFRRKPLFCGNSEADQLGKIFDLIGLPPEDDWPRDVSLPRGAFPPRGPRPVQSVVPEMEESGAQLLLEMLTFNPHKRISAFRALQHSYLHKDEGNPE

[5] = Inhibition of IGFR; set-up: species or system Homo sapiens
[6] = molecular target: Vascular endothelial growth factor receptor 2 (Homo sapiens, UniProt P35968); assay: Inhibition of KDR
Chain of Vascular endothelial growth factor receptor 2 (P35968 whole entry): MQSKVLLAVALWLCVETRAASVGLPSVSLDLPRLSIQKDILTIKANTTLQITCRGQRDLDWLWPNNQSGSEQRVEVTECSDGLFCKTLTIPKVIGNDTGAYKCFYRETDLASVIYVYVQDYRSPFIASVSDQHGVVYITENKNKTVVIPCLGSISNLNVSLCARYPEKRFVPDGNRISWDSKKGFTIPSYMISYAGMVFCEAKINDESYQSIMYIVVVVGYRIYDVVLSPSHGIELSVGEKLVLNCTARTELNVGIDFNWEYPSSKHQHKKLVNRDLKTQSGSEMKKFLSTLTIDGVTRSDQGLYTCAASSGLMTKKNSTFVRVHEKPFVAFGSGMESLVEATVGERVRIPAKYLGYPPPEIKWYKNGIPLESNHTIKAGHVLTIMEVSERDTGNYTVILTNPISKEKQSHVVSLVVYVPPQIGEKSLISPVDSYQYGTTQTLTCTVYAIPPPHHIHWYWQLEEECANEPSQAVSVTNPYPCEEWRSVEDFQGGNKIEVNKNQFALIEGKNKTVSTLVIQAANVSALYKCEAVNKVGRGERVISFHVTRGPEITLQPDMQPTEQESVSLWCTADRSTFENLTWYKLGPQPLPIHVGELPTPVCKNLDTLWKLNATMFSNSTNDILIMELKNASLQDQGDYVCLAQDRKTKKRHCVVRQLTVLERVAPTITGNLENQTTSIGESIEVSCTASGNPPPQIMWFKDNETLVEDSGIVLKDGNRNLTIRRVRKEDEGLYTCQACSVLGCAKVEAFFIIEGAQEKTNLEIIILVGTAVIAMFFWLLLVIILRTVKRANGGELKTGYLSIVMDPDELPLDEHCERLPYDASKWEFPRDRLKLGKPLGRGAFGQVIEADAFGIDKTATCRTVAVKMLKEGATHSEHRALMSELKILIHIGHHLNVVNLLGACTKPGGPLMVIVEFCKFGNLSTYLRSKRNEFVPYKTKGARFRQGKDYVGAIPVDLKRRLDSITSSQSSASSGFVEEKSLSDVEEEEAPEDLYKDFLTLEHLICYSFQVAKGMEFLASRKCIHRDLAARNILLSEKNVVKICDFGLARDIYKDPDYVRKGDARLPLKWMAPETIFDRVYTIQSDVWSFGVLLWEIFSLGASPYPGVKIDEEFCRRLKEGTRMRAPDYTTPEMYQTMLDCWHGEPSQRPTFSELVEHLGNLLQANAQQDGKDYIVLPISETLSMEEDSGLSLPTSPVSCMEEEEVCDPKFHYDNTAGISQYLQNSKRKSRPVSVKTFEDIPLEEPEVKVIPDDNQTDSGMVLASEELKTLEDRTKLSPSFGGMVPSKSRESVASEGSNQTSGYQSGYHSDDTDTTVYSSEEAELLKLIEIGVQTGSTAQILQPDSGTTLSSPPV

[7] = Permeability across artificial membrane by PAMPA; type: ADME; conditions: read-out: permeability
[8] = Solubility at neutral pH; type: physicochemical
[9] = Solubility at pH 4.5; type: physicochemical; conditions: buffer
[10] = molecular target: Epidermal growth factor receptor (Homo sapiens, UniProt P00533)
Chain of Epidermal growth factor receptor (P00533 whole entry): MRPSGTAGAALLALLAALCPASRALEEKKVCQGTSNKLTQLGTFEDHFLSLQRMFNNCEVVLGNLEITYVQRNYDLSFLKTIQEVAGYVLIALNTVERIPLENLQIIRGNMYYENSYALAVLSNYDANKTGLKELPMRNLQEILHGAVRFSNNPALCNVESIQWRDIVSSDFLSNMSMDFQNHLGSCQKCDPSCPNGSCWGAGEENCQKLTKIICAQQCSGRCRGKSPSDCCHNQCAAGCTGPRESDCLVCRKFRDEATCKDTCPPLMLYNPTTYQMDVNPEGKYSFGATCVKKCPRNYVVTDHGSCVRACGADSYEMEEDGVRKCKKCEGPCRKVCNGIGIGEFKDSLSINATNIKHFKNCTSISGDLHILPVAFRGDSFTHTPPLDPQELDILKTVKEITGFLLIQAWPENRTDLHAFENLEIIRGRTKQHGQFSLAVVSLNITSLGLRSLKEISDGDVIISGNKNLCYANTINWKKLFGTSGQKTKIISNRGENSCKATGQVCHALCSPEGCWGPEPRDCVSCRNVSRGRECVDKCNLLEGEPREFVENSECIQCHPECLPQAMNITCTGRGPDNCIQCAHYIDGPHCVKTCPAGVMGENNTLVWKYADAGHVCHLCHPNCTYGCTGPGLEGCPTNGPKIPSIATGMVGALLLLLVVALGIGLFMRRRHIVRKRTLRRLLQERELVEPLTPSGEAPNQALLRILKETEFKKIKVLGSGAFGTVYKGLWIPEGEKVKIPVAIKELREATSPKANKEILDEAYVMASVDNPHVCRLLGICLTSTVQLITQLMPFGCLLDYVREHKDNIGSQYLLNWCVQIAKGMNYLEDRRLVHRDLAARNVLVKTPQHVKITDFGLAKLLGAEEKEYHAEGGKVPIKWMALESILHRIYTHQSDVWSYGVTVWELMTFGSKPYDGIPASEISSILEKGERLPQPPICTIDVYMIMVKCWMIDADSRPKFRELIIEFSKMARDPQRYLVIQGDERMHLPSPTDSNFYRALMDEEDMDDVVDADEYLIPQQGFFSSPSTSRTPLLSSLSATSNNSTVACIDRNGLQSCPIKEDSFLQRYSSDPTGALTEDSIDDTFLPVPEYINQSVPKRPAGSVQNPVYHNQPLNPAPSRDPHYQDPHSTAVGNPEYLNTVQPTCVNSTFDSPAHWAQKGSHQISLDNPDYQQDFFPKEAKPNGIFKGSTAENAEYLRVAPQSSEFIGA

Chain of Proto-oncogene tyrosine-protein kinase Src (Homo sapiens, UniProt P12931) (P12931 2-536 limits assumed): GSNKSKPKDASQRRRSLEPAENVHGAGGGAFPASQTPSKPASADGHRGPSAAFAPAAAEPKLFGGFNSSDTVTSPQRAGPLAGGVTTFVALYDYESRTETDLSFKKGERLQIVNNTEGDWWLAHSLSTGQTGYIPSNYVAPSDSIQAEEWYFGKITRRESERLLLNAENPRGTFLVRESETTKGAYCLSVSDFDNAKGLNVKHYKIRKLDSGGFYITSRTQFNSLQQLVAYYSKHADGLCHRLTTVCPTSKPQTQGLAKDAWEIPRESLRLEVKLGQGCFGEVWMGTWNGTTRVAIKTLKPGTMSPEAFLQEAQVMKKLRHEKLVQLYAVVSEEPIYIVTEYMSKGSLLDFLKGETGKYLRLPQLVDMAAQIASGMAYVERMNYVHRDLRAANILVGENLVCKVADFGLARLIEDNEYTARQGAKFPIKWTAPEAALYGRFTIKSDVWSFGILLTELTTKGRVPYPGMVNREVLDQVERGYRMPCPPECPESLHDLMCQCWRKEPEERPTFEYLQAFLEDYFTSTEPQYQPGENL

| Compound | IC50 [1] [µM] | IC50 [2] [µM] | also measured |
| --- | --- | --- | --- |
| CCOc1cc2c(Nc3cc(OC)c(Cl)cc3Cl)c(C#N)cnc2cc1C#CCCN1CCN(C)CC1 | 0.0041 | 0.13 | – |
| COc1cc2c(Nc3cc(OC)c(OC)c(OC)c3)c(C#N)cnc2cc1C#CCCN1CCN(C)CC1 | 0.021 | 0.59 | – |
| COc1cc2c(Nc3ccc(Cl)cc3Cl)c(C#N)cnc2cc1C#CCCN1CCN(C)CC1 | 0.0087 | 0.43 | – |
| COc1cc(Nc2c(C#N)cnc3cc(C#CCCN4CCN(C)CC4)ccc23)c(Cl)cc1Cl | 0.028 | 1.7 | – |
| COc1cc(Nc2c(C#N)cnc3cc(C#CCN4CCN(C)CC4)c(OC)cc23)c(Cl)cc1Cl | 0.011 | 0.74 | – |
| COc1cc(Nc2c(C#N)cnc3cc(C#CCCN(C)C)c(OC)cc23)c(Cl)cc1Cl | 0.0049 | 0.25 | – |
| COc1cc(Nc2c(C#N)cnc3cc(C#CCCN4CCN(C)CC4)ccc23)cc(OC)c1OC | 0.22 | 2.1 | – |
| COc1cc(Nc2c(C#N)cnc3cc(C#CCCN4CCN(C)CC4)c(OC)cc23)c(Cl)cc1Cl | 0.0039 | 0.073 | IC50 [3]: > 5 µM; IC50 [4]: > 5 µM; IC50 [5]: > 5 µM; IC50 [6]: > 5 µM; Papp [7]: 68 nm/s; solubility [8]: 5 µg/mL (≈ 9.53 µM); solubility [9]: > 100 µg/mL; IC50 [10]: 0.72 µM |
| COc1cc(Nc2c(C#N)cnc3cc(C#CCCN4CCOCC4)c(OC)cc23)c(Cl)cc1Cl | – | 0.19 | – |
| COc1cc(Nc2c(C#N)cnc3ccc(C#CCCN4CCN(C)CC4)cc23)c(Cl)cc1Cl | 0.23 | 3.9 | – |
| COc1cc(Nc2c(C#N)cnc3cc(C#CCCN4CCNCC4)c(OC)cc23)c(Cl)cc1Cl | 0.0054 | 0.52 | – |
